Source: PubChem BioAssay (NCI)
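In this assay, cells in 96-well plates receive the compound at five concentrations for 48 hours. Endpoints are linearly interpolated between the surrounding concentrations. TGI is the concentration that stops growth completely.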

Assays:
Test in all cases: NCI tumour cell line growth inhibition, 48 h
RPMI-8226 leukemia = test system: RPMI-8226 leukemia
UO-31 renal = test system: UO-31 renal
UACC-62 melanoma = test system: UACC-62 melanoma
MOLT-4 leukemia = test system: MOLT-4 leukemia
HOP-92 NSCLC = test system: HOP-92 NSCLC
SK-MEL-28 melanoma = test system: SK-MEL-28 melanoma
LOX IMVI melanoma = test system: LOX IMVI melanoma
HT29 colon = test system: HT29 colon
K-562 leukemia = test system: K-562 leukemia
MDA-N = test system: MDA-N
HOP-62 NSCLC = test system: HOP-62 NSCLC
NCI-H23 lung = test system: NCI-H23 lung
CCRF-CEM leukemia = test system: CCRF-CEM leukemia
OVCAR-8 ovarian = test system: OVCAR-8 ovarian
COLO 205 colon = test system: COLO 205 colon
SK-MEL-2 melanoma = test system: SK-MEL-2 melanoma
NCI-H460 lung = test system: NCI-H460 lung
NCI-H522 lung = test system: NCI-H522 lung
HS 578T breast = test system: HS 578T breast
SNB-75 CNS = test system: SNB-75 CNS
SK-OV-3 ovarian = test system: SK-OV-3 ovarian
NCI-H226 lung = test system: NCI-H226 lung
HL-60(TB) leukemia = test system: HL-60(TB) leukemia
SF-539 CNS = test system: SF-539 CNS
NCI/ADR-RES ovarian = test system: NCI/ADR-RES ovarian
TK-10 renal = test system: TK-10 renal
BT-549 breast = test system: BT-549 breast
ACHN renal = test system: ACHN renal
UACC-257 melanoma = test system: UACC-257 melanoma
HCT-116 colon = test system: HCT-116 colon
DU-145 prostate = test system: DU-145 prostate
PC-3 prostate = test system: PC-3 prostate
KM12 colon = test system: KM12 colon
U251 CNS = test system: U251 CNS
IGROV1 ovarian = test system: IGROV1 ovarian
MDA-MB-435 = test system: MDA-MB-435
A549 NSCLC = test system: A549 NSCLC
SW-620 colon = test system: SW-620 colon
CAKI-1 renal = test system: CAKI-1 renal
T-47D breast = test system: T-47D breast
M14 melanoma = test system: M14 melanoma
EKVX NSCLC = test system: EKVX NSCLC
OVCAR-5 ovarian = test system: OVCAR-5 ovarian
A498 renal = test system: A498 renal
SF-268 CNS = test system: SF-268 CNS
MALME-3M melanoma = test system: MALME-3M melanoma
SN12C renal = test system: SN12C renal
OVCAR-3 ovarian = test system: OVCAR-3 ovarian
RXF 393 renal = test system: RXF 393 renal
HCT-15 colon = test system: HCT-15 colon
SF-295 CNS = test system: SF-295 CNS
SNB-19 CNS = test system: SNB-19 CNS
MDA-MB-231 breast = test system: MDA-MB-231 breast
SK-MEL-5 melanoma = test system: SK-MEL-5 melanoma
786-0 renal = test system: 786-0 renal
OVCAR-4 ovarian = test system: OVCAR-4 ovarian
MCF7 breast = test system: MCF7 breast
HCC-2998 colon = test system: HCC-2998 colon
SR leukemia = test system: SR leukemia

Measured: TGI

COC(=O)CCCc1c(-c2[nH]c3ccccc3c2CCCC(=O)OC)[nH]c2ccccc12
> 100 µM: RPMI-8226 leukemia | UO-31 renal | UACC-62 melanoma | MOLT-4 leukemia | HOP-92 NSCLC | SK-MEL-28 melanoma | LOX IMVI melanoma | HT29 colon | K-562 leukemia | MDA-N | HOP-62 NSCLC | NCI-H23 lung | CCRF-CEM leukemia | OVCAR-8 ovarian | COLO 205 colon | SK-MEL-2 melanoma | NCI-H460 lung | NCI-H522 lung | HS 578T breast | SNB-75 CNS | SK-OV-3 ovarian | NCI-H226 lung | HL-60(TB) leukemia | SF-539 CNS | NCI/ADR-RES ovarian | TK-10 renal | BT-549 breast | ACHN renal | UACC-257 melanoma | HCT-116 colon | DU-145 prostate | PC-3 prostate | KM12 colon | U251 CNS | IGROV1 ovarian | MDA-MB-435 | A549 NSCLC | SW-620 colon | CAKI-1 renal | T-47D breast | M14 melanoma | EKVX NSCLC | OVCAR-5 ovarian | A498 renal | SF-268 CNS | MALME-3M melanoma | SN12C renal | OVCAR-3 ovarian | RXF 393 renal | HCT-15 colon | SF-295 CNS | SNB-19 CNS | MDA-MB-231 breast | SK-MEL-5 melanoma | 786-0 renal

O=C(O)C1CCCN1C(=O)c1cc(Cl)ccn1 (configuration not stated)
> 100 µM: RPMI-8226 leukemia | UO-31 renal | UACC-62 melanoma | MOLT-4 leukemia | HOP-92 NSCLC | SK-MEL-28 melanoma | LOX IMVI melanoma | HT29 colon | K-562 leukemia | MDA-N | HOP-62 NSCLC | NCI-H23 lung | CCRF-CEM leukemia | OVCAR-4 ovarian | OVCAR-8 ovarian | MCF7 breast | COLO 205 colon | SK-MEL-2 melanoma | NCI-H460 lung | NCI-H522 lung | HS 578T breast | SNB-75 CNS | NCI-H226 lung | HL-60(TB) leukemia | SF-539 CNS | NCI/ADR-RES ovarian | TK-10 renal | HCC-2998 colon | BT-549 breast | ACHN renal | UACC-257 melanoma | SR leukemia | HCT-116 colon | DU-145 prostate | PC-3 prostate | KM12 colon | U251 CNS | IGROV1 ovarian | MDA-MB-435 | A549 NSCLC | SW-620 colon | CAKI-1 renal | T-47D breast | M14 melanoma | EKVX NSCLC | OVCAR-5 ovarian | A498 renal | SF-268 CNS | MALME-3M melanoma | SN12C renal | OVCAR-3 ovarian | RXF 393 renal | HCT-15 colon | SF-295 CNS | SNB-19 CNS | SK-MEL-5 melanoma | 786-0 renal
